# Laboratory results taken from patent publication US20040044304A1, “Local drug delivery using photosensitizer-mediated and electromagnetic radiation enhanced vascular permeability” (priority 2002, published 2004).
# Read-outs that look alike come from different tables or passages of the source.
# Tested on: vascular structures in the dorsal window chamber
# Assay type: in vivo, mice of strain C3H
# Conditions: MRV6401 0.05 mg/kg i.v., red 660 nm-680 nm
# From the text: Male mice of strain C3H (sourced from The Jackson Laboratory, 600 Main Street, Bar Harbor, Me. 04609, USA) weighing between 28-30 grams were surgically implanted with titanium back-pack window chambers in a similar manner to that described in Example 2. A chamber was considered suitable for subsequent studies if microscopic examination of the preparation met the same criteria as those described in Example 2. The intra-vital microscopic studies were undertaken on unsedated animals held in the same Plexiglass tube assembly as that described in Example 2. The intra-vital microscopy was also performed using the same Leitz Dialux 22 microscope fitted with the same objective lenses, and mercury lamp trans- and epi-illumination sources. However, for the studies described in Example 3, the irradiation source was not a DD4 laser, but rather, activation of the photosensitizers was undertaken using narrow band filtered light from the mercury lamp epi-illumination source. Two different wavelength bands were used to activate the photosensitizers, namely green or red light (see Table 5 below). These wavelengths were obtained by use of filter cubes placed in a Leitz Ploemopak illumination system (NcBain Instruments, Inc., 9601 […] Avenue, Chatsworth, Calif., 91311, USA) fitted to the Leitz Dialux 22 microscope. For activation using green light epi-illumination (530 nm-560 nm) the BP 530-560 band pass excitation filter of the Leitz Ploemopak N2 cube (Cat. No. 513-609, E. Leitz Inc., Rockleigh, N.J., 07647, USA) was used. For activation using red light epi-illumination (660 nm-680 nm) a 670DF20 band pass filter (Cat. No., XF1028, Omega Optical Co., Brattleboro, Vt., 05302, USA) fitted in a Leitz Ploemopak cube was used. In all cases, the activation of the photosensitizer was performed in a defined region that was smaller than the total field of tissue contained within the window chamber. The total mouse dorsal tissue contained within the window chambers was a circle of 1.0 cm diameter, corresponding to a total area of approximately 0.785 cm^2. The illumination field of the activating light was a circle of 0.225 cm diameter, corresponding to a total area of approximately 0.040 cm^2. Thus, approximately 5% of the total area of the chamber was directly illuminated. Mice bearing a dorsal window chamber were placed in the Plexiglass restrainer on the microscope stage for pre-treatment evaluation of the vascular structures. Prior to photosensitizer administration, the architecture of the vascular structures in the entire window chamber in all mice was examined using 410 nm filtered blue light from the mercury trans-illumination source of the intra-vital microscope, and the images which were generated were recorded on video tape for subsequent evaluation. The methods for imaging and recording were as described in Example 2. Briefly, the imaging source was a […] mercury arc lamp (Type 307-143.004 from Ernst Leitz Wetzlar GmBH, Germany) which was powered by an HBO 100 power supply (LEP Ltd., Scarsdale, N.Y.). The output from this source was filtered using a #H43157 interference filter (Edmund Scientific, 101 East Gloucester Pike, Barrington, N.J., 08007-1380), to produce a beam of 410 nm light. Typically, the power density of the imaging light was less than 0.6 […]^2. Two or three fields in each chamber were designated as fields of interest and their location recorded for post-treatment evaluation. These fields were chosen such that they were not adjacent to each other, and one of these fields was chosen so that it was within the region of the chamber that was to receive the activating light illumination. Following identification, recording and designation of the fields of interest, mice were injected with either the photosensitizer […] Medical Technologies, 336 Bollay Drive, Santa Barbara, Calif., 93117) formulated in egg yolk phospholipid ([…] Polar Lipids, Inc., 700 Industrial Park Avenue, Alabaster, Ala., 35007), the photosensitizer […]
# [1] = animal #10, 12 J/cm^2, probe 6 min post light irradiation
# [2] = animal #13, 8 J/cm^2, probe administered 24 hr post light irradiation
structure (smiles),measurement,setting,value
"C=Cc1c(C)c2[n]3c1=CC1=NC(=Cc4c(C)c5c([n]4[In]3[Cl])C(=C3N=C(C=2)[C@@H](C)[C@@H]3CCC(=O)OC)CC5=O)C(CC)=C1C [MV6401, indium methyl pyropheophorbide]",TRITC-Dextran in tissue and cells in regions outside the treatment field at 24 hr time point,"animal #8, 12 J/cm^2, 155 kD probe 10 min post light irradiation",no significant fluorescence from TRITC-Dextran
same,Leakage of 155 kD TRITC-Dextran in the treatment field at 24 hr time point,"animal #8, 12 J/cm^2, probe 10 min post light irradiation",significant leakage in region 2
same,"Leakage of secondary probe 150 kD FITC-Dextran from vessels in the treatment field, 20 min post probe","animal #8, 12 J/cm^2, probe administered 24 hr post light irradiation",leakage of FITC from vessels in the treated region 2
same,"Leakage of secondary probe 150 kD FITC-Dextran from vessels outside the treatment field, 20 min post probe","animal #8, 12 J/cm^2, probe administered 24 hr post light irradiation, 0.05 mg/kg",some minimal leakage from the vessels in region 1
same,150 kD FITC-Dextran in tissue and cells surrounding vessels (regions 1 treated and 3) at 24 hr,"animal #10, 12 J/cm^2","pattern was apparent at the 2 hr time point, and at the 24 hr time point there was FITC-Dextran present at high levels"
same,Leakage of 150 kD FITC-Dextran from the treated vessels at 1 hr post probe administration,[1],with significant leakage apparent
same,Leakage of 150 kD FITC-Dextran from vessels outside the treatment field at 1 hr post probe administration,[1],"from the treated vessels in region 1, some minor leakage from vessels in region 3 and no leakage from vessels in region"
same,"2,000 kD FITC-Dextran leakage in tissue and cells outside the treatment field at 24 hr","animal #11, 12 J/cm^2",FITC-Dextran uptake in tissues and cells in this region. The tissue and cells in regions 2 and 3 showed some minor
same,"Leakage of 2,000 kD FITC-Dextran from vessels outside the treatment field at 1 hr","animal #11, 12 J/cm^2, probe 19 min post light irradiation",no leakage from vessels in regions 2 and 3
same,"Leakage of 2,000 kD FITC-Dextran from vessels outside the treatment field at 1 hr","animal #12, 8 J/cm^2, probe 3 min post light irradiation",no leakage from vessels in regions 2 and 3
same,Leakage of secondary probe 155 kD TRITC-Dextran from vessels in the treatment field,"animal #12, 8 J/cm^2, probe administered 24 hr post light irradiation",significant on-going leakage from vessels in region 1
same,"Leakage of secondary probe 2,000 kD FITC-Dextran from vessels in the treatment field",[2],significant on-going leakage from vessels in region 1
same,"Leakage of secondary probe 2,000 kD FITC-Dextran from vessels outside the treatment field",[2],no evidence of on-going leakage
